{"source": "paper PMC5958115", "about": "“A novel small molecule chaperone of rod opsin and its potential therapy for retinal degeneration” (Nature Communications, 2018)", "key": {"human rod opsin P53R": {"molecular_target": "T1, human rod opsin P53R (Homo sapiens, UniProt P08100, P53R)", "T1 construct": "expressed in transfected cells; host or cells: NIH3T3 cells, transient transfection with pcDNA3.1-hOpsin mutant", "assay": "Cell-surface immunostain of rod opsin mutant in transfected NIH3T3 cells", "assay_type": "cell-based", "conditions": "10 µM, 24 h", "description": "(§1) Human rhodopsin cDNA was placed into the pcDNA3.1(+) vector (pcDNA3.1-hOpsin). Site-directed mutagenesis was performed following the QuickChange II site-directed mutagenesis kit (Agilent Technologies Inc.). Primers for the following mutations were as follows: T4R-forward, 5′-[…]-3′; T4R-reverse, 5′-[…]-3′; P53R-forward, 5′-[…]-3′; P53R-reverse, 5′-[…]-3′; G106R-forward, 5′-[…]-3′; G106R-reverse, 5′-[…]-3′; C110Y-forward, 5′-[…]-3′; C110Y-reverse, 5′-[…]-3′; D190N-forward, 5′-[…]-3′; D190N-reverse, 5′-[…]-3′; P267L-forward, 5′-[…]-3′; P267L-reverse, 5′-[…]-3′. DNA vectors with rhodopsin mutations were confirmed by Sanger sequencing. After NIH3T3 cells were transfected with pcDNA3.1-hOpsin or its mutants for 24 h, these cells were resuspended and seeded into a 96-well plate with an optic bottom (Corning). […] Each condition was repeated in three wells. The treated plate was covered in tin foil and incubated at 37 °C with 5% CO2 for 24 h. Cells were then immunostained with 50 µg mL^−1 Alexa488-conjugated B6-30 anti-rhodopsin antibody. Cells were not exposed to detergents so that cell membranes were kept intact and only rhodopsin on the cell surface was immunostained. Alexa 488 fluorescence was imaged by the ImageExpress (Molecular Devices) high-content imager with a ×20 objective."}, "human rod opsin C110Y": {"molecular_target": "T2, human rod opsin C110Y (Homo sapiens, UniProt P08100, C110Y)", "T2 construct": "expressed in transfected cells; host or cells: NIH3T3 cells, transient transfection with pcDNA3.1-hOpsin mutant", "assay": "Cell-surface immunostain of rod opsin mutant in transfected NIH3T3 cells", "assay_type": "cell-based", "conditions": "10 µM, 24 h", "description": "as §1"}, "human rod opsin G106R": {"molecular_target": "T3, human rod opsin G106R (Homo sapiens, UniProt P08100, G106R)", "T3 construct": "expressed in transfected cells; host or cells: NIH3T3 cells, transient transfection with pcDNA3.1-hOpsin mutant", "assay": "Cell-surface immunostain of rod opsin mutant in transfected NIH3T3 cells", "assay_type": "cell-based", "conditions": "10 µM, 24 h", "description": "as §1"}, "human rod opsin D190N": {"molecular_target": "T4, human rod opsin D190N (Homo sapiens, UniProt P08100, D190N)", "T4 construct": "expressed in transfected cells; host or cells: NIH3T3 cells, transient transfection with pcDNA3.1-hOpsin mutant", "assay": "Cell-surface immunostain of rod opsin mutant in transfected NIH3T3 cells", "assay_type": "cell-based", "conditions": "10 µM, 24 h", "description": "as §1"}, "human rod opsin P267L": {"molecular_target": "T5, human rod opsin P267L (Homo sapiens, UniProt P08100, P267L)", "T5 construct": "expressed in transfected cells; host or cells: NIH3T3 cells, transient transfection with pcDNA3.1-hOpsin mutant", "assay": "Cell-surface immunostain of rod opsin mutant in transfected NIH3T3 cells", "assay_type": "cell-based", "conditions": "10 µM, 24 h", "description": "as §1"}, "[1]": {"assay": "Metabolic stability in human liver microsomes", "assay_type": "in vitro ADME", "conditions": "5 µM, NADPH, 37 °C", "description": "(§2) A standard metabolic stability assay was performed in the presence of mouse or human liver microsomes. YC-001 (5 µM) was incubated with the microsomes (0.125 mg mL^−1) resuspended in 0.2 mL of PBS buffer, pH 7.4 composed of 10 mM Na2HPO4, 1.8 mM KH2PO4, 137 mM NaCl, and 2.7 mM KCl. The enzymatic reaction to produce oxidized metabolites was initiated by addition of NADPH (1 mM). Samples were incubated at 37 °C for up to 240 min. Incubation without the cofactor was conducted in parallel to assess NADPH-independent clearance. The reactions were stopped with 0.2 mL of methanol followed by 0.3 mL chloroform. Residual YC-001 was extracted by vigorous shaking. To facilitate phase separation, the samples were spun down for 2 min, 15,000×g. The chloroform fraction was collected, dried down, and the extracted organic compounds were redissolved in 0.2 mL of methanol. To quantify YC-001, the samples were injected onto an Eclipse XDB-C18 column (4.6 × 150 mm, 5 µm) (Agilent Technologies) equilibrated with solvent composed of 30% acetonitrile in water (v/v), and 0.1% formic acid. YC-001 was eluted in a gradient of acetonitrile in water (30–100%) developed within 15 min at a flow rate of 1 mL min^−1, detected at 350 nm, and quantified by correlating peak areas with known quantities of an original synthetic standard. […]"}, "[2]": {"assay": "Metabolic stability in mouse liver microsomes", "assay_type": "in vitro ADME", "conditions": "5 µM, NADPH, 37 °C", "description": "as §2"}}}
{"smiles": "O=C1OCC(c2ccc(Cl)s2)=C1c1cccs1", "note": "[YC-001]", "values": [{"measurement": "cell-surface staining of P53R rod opsin", "setting": "human rod opsin P53R", "result": "not P53R or C110Y mutants increased significantly"}, {"measurement": "cell-surface staining of C110Y rod opsin", "setting": "human rod opsin C110Y", "result": "not P53R or C110Y mutants increased significantly"}, {"measurement": "cell-surface staining of G106R rod opsin", "setting": "human rod opsin G106R", "result": "increased significantly"}, {"measurement": "cell-surface staining of D190N rod opsin", "setting": "human rod opsin D190N", "result": "increased significantly"}, {"measurement": "cell-surface staining of P267L rod opsin", "setting": "human rod opsin P267L", "result": "increased significantly"}, {"measurement": "initial clearance in liver microsomes", "setting": "[1]", "result": "even higher initial clearance compared to the fast clearance drug, verapamil"}, {"measurement": "initial clearance in liver microsomes", "setting": "[2]", "result": "even higher initial clearance compared to the fast clearance drug, verapamil"}]}
